The NIST ThermoML archive (doi:10.1016/j.jct.2012.06.033)
± gives the expanded uncertainty stated by the source.

What was measured:
[1] = Liquid, Ebulliometric method (Recirculating still)
[2] = refractive index (Na D-line) (dimensionless); details: 298.15 K; 101.33 kPa; Liquid; Standard Abbe refractometry

SMILES | vapor or sublimation pressure ([1]; 343.15 K) [kPa] | vapor or sublimation pressure ([1]; 353.15 K) [kPa] | vapor or sublimation pressure ([1]; 363.15 K) [kPa] | refractive index [2]
CC[N+](=O)[O-] [nitroethane] | 22.46 ± 0.13 | 32.84 ± 0.17 | 47.13 ± 0.22 | 1.3895 ± 0.0007
ClCCCCCl [1,4-dichlorobutane] | 5.25 ± 0.03 | 8.2 ± 0.04 | 12.52 ± 0.05 | 1.4522 ± 0.0004
C[N+](=O)[O-] [nitromethane] | 34.93 ± 0.2 | 50.14 ± 0.25 | 70.81 ± 0.33 | 1.3793 ± 0.0007
